According to ChEMBL document CHEMBL3044566, “Synthesis and anticancer activity of some new s-triazine derivatives” (Med Chem Res, 2013):

How the values were obtained:
Format in all cases: functional, cell-based
MCF7 = test: Cytotoxicity against human MCF7 cells after 24 hrs by MTT assay; settings: MCF7, 24 h
HT-29 = test: Cytotoxicity against human HT-29 cells after 24 hrs by MTT assay; settings: HT-29, 24 h
A549 = test: Cytotoxicity against human A549 cells after 24 hrs by MTT assay; settings: A549, 24 h
PA-1 = test: Cytotoxicity against human PA1 cells after 24 hrs by MTT assay; settings: PA-1, 24 h

## Fc1ccc(Nc2nc(Nc3ccc(-c4nc5ccccc5o4)cc3)nc(N3CCOCC3)n2)cc1
MCF7
  IC50: 12.3 µM
HT-29
  IC50: 0.31 µM
A549
  IC50: 26.7 µM
PA-1
  IC50: 0.45 µM

## c1ccc(CNc2nc(Nc3ccc(-c4nc5ccccc5o4)cc3)nc(N3CCOCC3)n2)cc1
MCF7
  IC50: 2.46 µM
HT-29
  IC50: 0.92 µM
A549
  IC50: 23.4 µM
PA-1
  IC50: 10.5 µM

## COc1ccc(Nc2nc(Nc3ccc(-c4nc5ccccc5o4)cc3)nc(N3CCOCC3)n2)cc1
MCF7
  IC50: 6.48 µM
HT-29
  IC50: 0.14 µM
A549
  IC50: 12.9 µM
PA-1
  IC50: 0.25 µM

## c1ccc(Nc2nc(Nc3ccc(-c4nc5ccccc5o4)cc3)nc(N3CCOCC3)n2)cc1
MCF7
  IC50: 10.6 µM
HT-29
  IC50: 0.27 µM
A549
  IC50: 22 µM
PA-1
  IC50: 0.61 µM

## Clc1nc(NCc2ccccc2)nc(Nc2ccc(-c3nc4ccccc4o3)cc2)n1
MCF7
  IC50: 66.1 µM
HT-29
  IC50: 44 µM
A549
  IC50: 296 µM
PA-1
  IC50: 195 µM

## Fc1ccc(Nc2nc(Cl)nc(Nc3ccc(-c4nc5ccccc5o4)cc3)n2)cc1
MCF7
  IC50: 68.4 µM
HT-29
  IC50: 47 µM
A549
  IC50: 254 µM
PA-1
  IC50: 186 µM

## COc1ccc(Nc2nc(Cl)nc(Nc3ccc(-c4nc5ccccc5o4)cc3)n2)cc1
MCF7
  IC50: 270 µM
HT-29
  IC50: 139 µM
A549
  IC50: 278 µM
PA-1
  IC50: 172 µM

## Clc1nc(Nc2ccccc2)nc(Nc2ccc(-c3nc4ccccc4o3)cc2)n1
MCF7
  IC50: 55.2 µM
HT-29
  IC50: 32.6 µM
A549
  IC50: 225 µM
PA-1
  IC50: 169 µM

## COc1cccc2c1C(=O)c1c(O)c3c(c(O)c1C2=O)C[C@@](O)(C(=O)CO)C[C@@H]3O[C@H]1C[C@H](N)[C@H](O)[C@H](C)O1 [DOXORUBICIN]
MCF7
  IC50: 10.9 µM
HT-29
  IC50: 1.76 µM
PA-1
  IC50: 0.64 µM
